What was measured:
hypoxic tumors [1] = assay: Published studies: fluorocarbons as O2 delivery agents to sensitize hypoxic tumors to radiation therapy; format: in vivo; settings: versus the liquid fluorocarbons fluosol and perfluoroctylbromide
Description: In these studies, fluorocarbons were administered systemically and oxygen was administered via inhalation to sensitize hypoxic tumors to radiation therapy. PFOB was effective at less than 1/100th the dose of the liquid fluorocarbons fluosol and […].

hypoxic tumors [2] = settings: administered systemically, oxygen via inhalation; published studies; cited from earlier work

## FC(F)(F)C(F)(F)C(F)(F)C(F)(F)C(F)(F)C(F)(F)C(F)(F)C(F)(F)Br [PFOB, perfluoroctylbromide]
Hypoxic tumors [1]
  effective dose as a fraction of the dose of liquid fluorocarbons: less than 1/100
Hypoxic tumors [2]
  Volume (dose as O2 delivery agent): 0.002 to 0.015 L/kg
  g/kg (fluorocarbon dose as O2 delivery agent): 2 to 15 g/kg
